pIC50: −log10 of the molar value.
Biological target: T1, PDK-1 (Homo sapiens, UniProt O15530)
T1 sequence (O15530 1-556): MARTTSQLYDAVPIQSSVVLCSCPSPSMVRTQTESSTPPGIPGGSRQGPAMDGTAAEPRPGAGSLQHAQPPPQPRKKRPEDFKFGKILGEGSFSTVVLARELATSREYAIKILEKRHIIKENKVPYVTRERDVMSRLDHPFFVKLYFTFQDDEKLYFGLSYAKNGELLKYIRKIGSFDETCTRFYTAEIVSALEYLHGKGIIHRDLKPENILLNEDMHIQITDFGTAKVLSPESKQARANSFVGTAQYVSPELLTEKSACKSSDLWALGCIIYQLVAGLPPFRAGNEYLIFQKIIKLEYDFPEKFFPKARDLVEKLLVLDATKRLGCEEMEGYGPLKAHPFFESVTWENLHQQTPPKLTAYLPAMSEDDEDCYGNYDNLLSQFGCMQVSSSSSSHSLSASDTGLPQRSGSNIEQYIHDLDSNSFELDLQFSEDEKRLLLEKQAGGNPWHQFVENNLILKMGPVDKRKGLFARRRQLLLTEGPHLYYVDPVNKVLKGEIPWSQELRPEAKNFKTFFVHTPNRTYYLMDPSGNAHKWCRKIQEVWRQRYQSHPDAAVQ
Test: PDK-1 kinase inhibition ELISA assay (phosphorylation of His6-tagged SGK1 S422D by PDK-1)
Type: biochemical
Conditions: not given

| SMILES | pIC50 |
| --- | --- |
| COc1cc2ncc3c(N)nc(-c4cncc(Nc5ccccc5F)c4)cc3c2cc1OC [Ib-205, 2-{5-[(2-fluorophenyl)amino]pyridin-3-yl}-8,9-dimethoxybenzo[c][2,7]naphthyridin-4-amine] | 6.74 |

Same assay, conditions: PDK-1 ELISA, Table 11; read-out: Average IC50

| SMILES | pIC50 |
| --- | --- |
| COc1cc2ncc3c(N)nc(-c4cncc(Oc5ncccc5N)c4)cc3c2cc1OC [Ib-169, 2-{5-[(3-Aminopyridin-2-yl)oxy]pyridin-3-yl}-8,9-dimethoxybenzo[c][2,7]naphthyridin-4-amine] | 7.22 |
| COc1cc2ncc3c(N)nc(-c4cncc(CCCN)c4)cc3c2cc1OC [Ib-256, 2-[5-(3-aminopropyl)pyridin-3-yl]-8,9-dimethoxybenzo[c][2,7]naphthyridin-4-amine] | 7.57 |
| COCCOc1cc2ncc3c(N)nc(N4CCCC4)cc3c2cc1OC [Ia-62, 9-Methoxy-8-(2-methoxyethoxy)-2-pyrrolidin-1-ylbenzo[c]-2,7-naphthyridin-4-amine] | 5.73 |
| COc1cc2ncc3c(N)nc(-c4cncc(OC[C@@H](N)COc5cc(C)ccn5)c4)cc3c2cc1OC [Ib-152, 2-[5-({(2R)-2-amino-3-[(4-methylpyridin-2-yl)oxy]propyl}oxy)pyridin-3-yl]-8,9-dimethoxybenzo[c][2,7]naphthyridin-4-amine] | 8.05 |
| CCCCNC(=N)c1cncc(-c2cc3c(cnc4cc(OC)c(OC)cc43)c(N)n2)c1 [Ib-268, 5-(4-Amino-8,9-dimethoxybenzo[c][2,7]naphthyridin-2-yl)-N-butylnicotinimidamide] | 6.00 |
| COc1cc2ncc3c(N)nc(-c4cncc(OC[C@@H](N)CN5CCC(=O)CC5)c4)cc3c2cc1OC [Ib-4, 1-[(2S)-2-amino-3-{[5-(4-amino-8,9-dimethoxybenzo[c]-2,7-naphthyridin-2-yl)pyridin-3-yl]oxy}propyl]piperidin-4-one] | 7.54 |
| COc1cc2ncc3c(N)nc(-c4cccc(C(=O)N5CCN(c6ccccn6)CC5)c4)cc3c2cc1OC [Ib-247, 8,9-dimethoxy-2-{3-[(4-pyridin-2-ylpiperazin-1-yl)carbonyl]phenyl}benzo[c][2,7]naphthyridin-4-amine] | 6.00 |
| COc1cc2ncc3c(N)nc(-c4cncc(OC[C@@H](N)CSc5ccncc5)c4)cc3c2cc1OC [Ib-164, 2-(5-{[(2R)-2-amino-3-(pyridin-4-ylthio)propyl]oxy}pyridin-3-yl)-8,9-dimethoxybenzo[c][2,7]naphthyridin-4-amine] | 8.00 |
| COc1cc2ncc3c(N)nc(-c4cncc(OC[C@@H](N)CNC5CCC(O)CC5)c4)cc3c2cc1OC (stereo partly drawn) [Ib-91, 4-{[(2S)-2-amino-3-{[5-(4-amino-8,9-dimethoxybenzo[c][2,7]naphthyridin-2-yl)pyridin-3-yl]oxy}propyl]amino}cyclohexanol] | 7.40 |
| COc1cc2ncc3c(N)nc(-c4cncc(OC[C@@H](N)COc5ccc(Cl)cn5)c4)cc3c2cc1OC [Ib-154, 2-[5-({(2R)-2-amino-3-[(5-chloropyridin-2-yl)oxy]propyl}oxy)pyridin-3-yl]-8,9-dimethoxybenzo[c][2,7]naphthyridin-4-amine] | 8.40 |
| COc1cc2ncc3c(N)nc(-c4cncc(OC[C@@H](N)Cc5c[nH]c6ccccc56)c4)cc3c2cc1OC [Ib-13, 2-(5-{[(2S)-2-amino-3-(1H-indol-3-yl)propyl]oxy}pyridin-3-yl)-8,9-dimethoxybenzo[c]-2,7-naphthyridin-4-amine] | 8.22 |
| COc1cc2ncc3c(N)nc(-c4cncc(OC[C@@H](N)COc5ccc(C(F)(F)F)cn5)c4)cc3c2cc1OC [Ib-145, 2-(5-{[(2R)-2-amino-3-{[5-(trifluoromethyl)pyridin-2-yl]oxy}propyl]oxy}pyridin-3-yl)-8,9-dimethoxybenzo[c][2,7]naphthyridin-4-amine] | 8.40 |
| COc1cc2ncc3c(N)nc(-c4cncc(OC[C@@H](N)CNC5CCOCC5)c4)cc3c2cc1OC [Ib-96, (2S)-3-{[5-(4-amino-8,9-dimethoxybenzo[c][2,7]naphthyridin-2-yl)pyridin-3-yl]oxy}-N1-(tetrahydro-2H-pyran-4-yl)propane-1,2-diamine] | 7.59 |
